The values below are quoted from earlier work in patent publication US6703390B2, “Sulfur containing dihydrophthalazine antagonists of excitatory amino acid receptors” (Transgenomic, Inc., priority 2000, dated 2004).

Read-outs that look alike come from different tables or passages of the source.

For data set [1], the system named is middle cerebral artery occlusion (MCAO) model of ischemia.
For data set [2], the system named is common carotid arteries model of global ischemia. As to conditions: compared with the competitive antagonist NBQX.

Consider `CC1=NN=C(c2ccc(N)cc2)c2cc3c(cc2C1)OCO3` [GYKI 52466], for which the entries for the “reduced cortical infarct volumes” value in data set [1] (given continuously for 2 hours just after occlusion) and in data set [1] (given delayed for one hour after occlusion) were 68% and 48%, respectively. The “efficacy in MCAO model of ischemia” value in data set [1] (given either continuously for 2 hours just after occlusion or delayed for one hour) is recorded as “effective”. Further, the “efficacy in global ischemia model” value in data set [2] was “as effective as the glutamate site competitive antagonist NBQX”.
